Laboratory results as given in PubChem BioAssay AID602347 (The Scripps Research Institute Molecular Screening Center, 2012).

Molecular target: Monoacylglycerol lipase ABHD6 (Mus musculus) (UniProt Q8R2Y0)
Test: in vivo brain ABHD6 target engagement – gel-based competitive ABPP, fluorescence, mouse brain, in vivo study for DAGLb inhibitor project, late-stage follow-up (AID 602347)
Conditions: in vivo dosing, active compounds read high, dose or concentration not given here

Sequence of Monoacylglycerol lipase ABHD6 (Mus musculus) (Q8R2Y0 whole entry, looked up): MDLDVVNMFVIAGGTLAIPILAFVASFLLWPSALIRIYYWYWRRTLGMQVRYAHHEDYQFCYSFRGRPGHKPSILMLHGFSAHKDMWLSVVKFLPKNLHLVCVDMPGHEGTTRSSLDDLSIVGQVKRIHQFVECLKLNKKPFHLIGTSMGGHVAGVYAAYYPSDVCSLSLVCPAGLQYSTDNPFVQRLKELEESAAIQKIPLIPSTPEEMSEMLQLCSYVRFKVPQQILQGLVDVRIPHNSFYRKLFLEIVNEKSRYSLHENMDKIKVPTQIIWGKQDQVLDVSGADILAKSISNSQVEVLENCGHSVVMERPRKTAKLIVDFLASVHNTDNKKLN

| Compound | inhibition (with FP-Rh probe) [%] | inhibition (with HT-01 probe) [%] |
| --- | --- | --- |
| O=C(N1CCCCC1Cc1ccccc1)n1cc(-c2ccc(-c3ccccc3C(F)(F)F)cc2)nn1 (stereo unspecified) | 95 | 95 |
| COc1ccccc1-c1ccc(-c2cn(C(=O)N3CCCCC3Cc3ccccc3)nn2)cc1 (stereo unspecified) | 100 | 100 |
| O=C(N1CCCCC1Cc1ccccc1)n1cc(-c2ccc(-c3ccccc3)cc2)nn1 (stereo unspecified) | 100 | 100 |
